Test results as given in US10238641B2, “Materials and methods for diagnosis, prevention and/or treatment of stress disorders and conditions associated with A-beta peptide aggregation” (The United States of America as represented by the …, priority 2008, dated 2019).

How the values were obtained:
[1] = tested on: rat cortical cells exposed to Aβ1-42; experiment: Aβ toxicity assay, MTT cell viability; format: cell-based
Experimental: Primary cortical embryonic rat neurons were incubated with 5 μM Aβ in the presence or absence of various concentrations cotinine for […] as described (Echeverria et al. (2005)). Cell viability was assessed using the MTT assay (Sigma). As an alternative approach cell viability after exposure to Aβ and cotinine was assessed using the vital dye calcein-AM (green fluorescence) to stain live cells and propidium iodide to stain dead cells. MTT values were normalized to control values considered 100%.
It has been discovered that cotinine protects brain cortical cells against the toxicity of the Amyloid beta peptide. The cortical cells were exposed to 5 microM Aβ for 24 hours and 48 hours and analyzed for cell viability using two viability tests. Cell viability was quantified by MTT and propidium iodide (PI) and calcein-AM staining assays. MTT assay measures the mitochondrial conversion of the tetrazolium salt MTT (3-(4,5-dimethylthiazol-2-yl)-2,5-diphenyl tetrazolium bromide) to formazan. To perform the MTT assay the cell culture medium was replaced with medium containing MTT (0.5 mg/mL). Following 1-4 h of incubation at 37° C., MTT formazan crystals were dissolved in DMSO and absorbance at 570 nm was measured. Absorbance values are a measure of cell viability. MTT results are expressed as percentage of vehicle treated controls. MTT assays were performed by measuring the levels of formazan after dissolving the precipitates in DMSO. The double calcein—AM and PI staining, involves staining with PI (a fluorescent nucleic acid dye used for the staining of dead cells) and calcein-AM a compound that inside of live brain cells, is converted to the green fluorescent compound calcein. After 30 minutes of incubation of the cells with these compounds were washed and analyzed by fluorescence microscopy. […] Cotinine inhibits Abeta oligomerization and prevents its toxicity on cortical neurons.
Embryonic rat cortical neurons were cultured following the protocol described (Brewer (1995)) but using embryonic cortical tissues obtained from Brain Bits LLC (Springfield, Ill., USA). The brain tissues were dissociated by 0.05% (v/v) trypsin digestion and dissociated by repeated passages through a pipette tip. Cortical cells (2×10^5 cells, 1,250 cells/mm^2) were plated in Neurobasal E medium, supplemented with 2% B27, and 1 mM Glutamax and plated onto 20-mm tissue culture wells coated with poly-D-lysine (0.1 mg/ml). Then cortical cells were incubated at 37° C. in a humidified incubator with 95% air/5% CO2 for 7-10 days, before being used for cell viability and protein expression analysis.
For the Aβ neurotoxicity assay, after 7 days in vitro (DIV) the conditioned media of cortical cells was replaced with Neurobasal E medium, supplemented with 2% B27 without antioxidants (B27-AO; Invitrogen, Carlsbad, Calif.) for 2 h. […]
Cell viability was quantified by MTT and propidium iodide (PI) and calcein-AM staining. […] Following 1-4 h incubation at 37° C., MTT formazan crystals were dissolved in DMSO and absorbance at […] was measured. MTT results are expressed as a percentage of vehicle-treated controls.
To investigate the effect of cotinine on Aβ neurotoxicity, rat cortical cells were grown in conditions that permitted us to obtain a neuron-enriched culture (around 95% neuron and 5% glial cells) for 7-10 days. […] After 24 h, cell survival was assessed by using MTT and PI and calcein-AM cell viability assays. […]

fear memory in mice = experiment: Contextual fear conditioning, freezing behavior; format: in vivo
Experimental: Mice (n=8, by condition) were treated with vehicle or cotinine (1 and 5 mg/kg/day) for 8 days and then subjected to Fear conditioning training as described. After 24 hours (h) mice were tested for freezing behavior when re-exposed to the same context (the chamber) every day for […].
To study the effect of cotinine on contextual fear memory, we pretreated mice with vehicle or cotinine at 1 and 5 mg/kg/day for 8 days. After this time, mice were trained for contextual fear conditioning (FC). Briefly, mice were trained to associate the context (the chamber) with an aversive unconditioned stimulus (1 mA foot shock for 2 seconds). After the FC training, the mice were re-exposed to the context every day for 7 consecutive days. The mice were treated daily with vehicle or cotinine at 1 and 5 mg/kg during the FC training and re-exposure to the context. The fear memory of the mice expressed as freezing behavior was assessed each day after re-exposure to the context. The fear memory after 24 h of the FC training is considered a measure of retention of the fear memory. The reduction of fear memory expressed as a reduction in the freezing behavior after the retention trial is evaluated as the extinction of the fear memory.

[2] = tested on: sensorimotor abilities in mice; experiment: Rotarod test; format: in vivo; conditions: two weeks of cotinine 1 mg/kg and 5 mg/kg
Experimental: At the end of the behavioral testing for FC, mice treated for two weeks with vehicle, cotinine 1 mg/kg and 5 mg/kg were tested in the rotarod as follows. The rotarod test was performed in an apparatus consisting of a 3 cm in diameter rod that was started at 4 rpm, accelerating up to 40 rpm for 5 min. Mice were tested for the time spent on the rod during each trial for a total of four trails per day. Testing during each trial was finished when the mouse fell off the rod and onto a spring-cushioned lever. The results are expressed as latency to fall in seconds (time spent on the rod) with 8 mice/group/treatment.
To discard a confounding effect of cotinine on learning due to changes in motor coordination and fatigue, we tested mice in the rotarod test after 2 weeks of treatment with vehicle or cotinine at the doses indicated in the figure below.

[3] = tested on: sensorimotor abilities in mice; experiment: Open field activity test; format: in vivo; conditions: data not shown
transgenic Tg6799 mice = experiment: Circular platform test of reference memory; format: in vivo; conditions: cotinine 2.5 mg/kg via gavage for two months
Experimental: Mice of 2.5 months of age were treated or not with cotinine 2.5 mg/kg via gavage for two months and after tested in the circular platform test. In this test the number of errors to escape a 69 cm diameter circular platform containing 16 holes along its perimeter was determined in a single daily trial (300 s maximum) over 8 days of testing. Only one hole leads to an escape box, which remains the same for any given animal. To control for olfactory cures, the escape hole was relocated after each animal's trial and the maze cleaned with a dilute vinegar solution. Tg, transgenic Tg6799 mice, NT, control wild type littermate mice. N=11 mice by group.

Aβ = Aβ (Homo sapiens, UniProt P05067); experiment: Binding of cotinine to Aβ in vitro
Aβ, sequence (P05067 672-713 limits assumed): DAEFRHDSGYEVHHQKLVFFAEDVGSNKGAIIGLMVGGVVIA

## CN1C(=O)CC[C@H]1c1cccnc1 [cotinine]
[1]; 5 μM Aβ + 10 μM cotinine, 24 h, 7 DIV cortical cells, Aβ alone 76%
  cell survival, % of vehicle-treated control cells (MTT): 85%
[1]; Aβ pre-incubated 3 h at 4° C. without cotinine, then added to media containing 10 μM cotinine
  effect on Aβ neurotoxicity when cotinine is added after pre-aggregation of Aβ: not able to block Aβ neurotoxicity
[1]; Aβ pre-incubated with 10 μM cotinine 3 h at 4° C.
  increase in cell viability versus Aβ alone: 22%
[1]; Rattus norvegicus, Aβ pre-incubated with 10 μM cotinine 3 h at 4° C., then 24 h on cells, Aβ alone 66%±3.6
  viability at 10 µM: 87.3%
[1]; added together with 5 μM Aβ, 24 h
  lowest cotinine concentration protecting cortical cells against Aβ toxicity (MTT): 1 µM
Fear memory in mice; cotinine 1 mg/kg/day, 24 h after FC training, p=0.0191
  freezing in the retention test versus vehicle: significantly lower percentage of freezing
Fear memory in mice; cotinine 5 mg/kg, day 6 of re-exposure, p=0.0218
  freezing in the extinction test versus vehicle: significantly lower percentage of freezing
[2]
  sensorimotor abilities, latency to fall (rotarod): did not affect sensorimotor abilities
[3]
  sensorimotor abilities (open field activity test): no changes in sensorimotor abilities were detected
Transgenic Tg6799 mice
  reference memory in the circular platform: prevents the loss of reference memory
Aβ
  binding to Aβ: high affinity
